Read-outs that look alike come from different tables or passages of the source.
Assays:
TSPO [1] = assay: Competition binding assay against ^3H-PK11195 in human heart homogenate (HAB, MAB, LAB); settings: for LAB:HAB ratio: rs6971 polymorphism; for difference between HAB and LAB in individually calculated affinity values: unpaired t-test
Method: (§1) All studies using human tissue were conducted in accordance with the East of Scotland Research Ethics Service (Edinburgh Brain Bank, 11/ES/0022). […] To exclude sex dependent differences in TSPO binding (Fairweather et al.), only male samples were utilized in this study. Sample tissues were homogenized in 10× w/v buffer (50 mM Tris-Base, pH 7.4, 4° C.) before centrifugation (32,000 g, 10 min, 4° C.). Tissue pellets were then resuspended in 10× w/v buffer and centrifuged again before re-suspending them in buffer (2 mL). Samples were then assessed for protein concentration using the Bio-Rad protein assay (Bio-Rad, USA), aliquoted and stored at −80° C. until use.
(§2) Competition binding assays were carried out as previously reported (Blair et al. (Med. Chem. Commun.)). […] A concentration of 8 μM was used to determine non-specific binding for each ligand. Binding was terminated with the addition of 2 mL of ice cold buffer before being immediate filtered over a Whatman GF/B filters (Whatman, UK) pre-treated with 0.3% polyethylenimine (Sigma-Aldrich, USA) using a Brandel harvester (Brandel, USA). Filter paper was then removed, placed into 2.5 mL of Optiphase HiSafe 3 (Perkin Elmer, USA) and counted 48 hours later on a Hidex 300 SL (Hidex, Finland). […] All binding assays were performed in triplicate. GraphPad Prism version 6 (GraphPad Software, USA) was used to fit all binding affinity curves. A comparison of a one-site and two-site fitting was made using the least squares algorithm and model selection was compared using an F test. The null hypothesis (that one-site fitting as more suitable) was rejected if p<0.05. The mean % SB normalized to the minimum inhibition of each group (HAB, MAB or LAB) was used to determine whether a one-site or two-site fitting was appropriate, and to subsequently calculate LAB:HAB ratio. Affinity values (Ki) were calculated by fitting individual tissue samples based on the mean group fitting.

TSPO [2] = assay: Competition binding assay against ^3H-PK11195 in human brain homogenate (HAB, MAB, LAB); settings: for LAB:HAB affinity ratio: rs6971 polymorphism; for difference between HAB and LAB in individually calculated affinity values: unpaired t-test
Method: as §1, §2

TSPO [3] = target: TSPO (Homo sapiens, UniProt P30536); assay: as above; set-up: other: human brain; other: human heart
Method: as §1
Competition binding assays were carried out as previously reported (Blair et al. (Med. Chem. Commun.)). […] A concentration of 8 μM was used to determine non-specific binding for each ligand. Binding was terminated with the addition of 2 mL of ice cold buffer before being immediate filtered over a Whatman GF/B filters (Whatman, UK) pre-treated with 0.3% polyethylenimine (Sigma-Aldrich, USA) using a Brandel harvester (Brandel, USA). Filter paper was then removed, placed into 2.5 mL of Optiphase HiSafe 3 (Perkin Elmer, USA) and counted 48 hours later on a Hidex 300 SL (Hidex, Finland). […] Affinity values (Ki) were calculated by fitting individual tissue samples based on the mean group fitting.

[4] = Pharmacokinetic/Pharmacodynamic study of PK11195 tissue exposure; format: in vivo; settings: Sprague-Dawley, rat, rats, mean±SEM, n=3, read-out: exposure level
TSPO [5] = settings: literature; cited from earlier work
TSPO [6] = settings: literature (Ikawa et al.); cited from earlier work
[7] = in humans; literature; cited from earlier work

Sequence of TSPO (Homo sapiens, UniProt P30536) (P30536 whole entry): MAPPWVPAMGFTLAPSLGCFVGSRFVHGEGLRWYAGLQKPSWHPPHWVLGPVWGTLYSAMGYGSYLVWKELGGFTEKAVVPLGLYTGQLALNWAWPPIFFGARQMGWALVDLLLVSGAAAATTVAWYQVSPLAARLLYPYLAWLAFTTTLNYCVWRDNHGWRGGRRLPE

LAB:HAB ratio (TSPO [1])	LAB:HAB affinity ratio (TSPO [2])	Structure (SMILES)	difference between HAB and LAB in individually calculated affinity values (TSPO [2])	difference between HAB and LAB in individually calculated affinity values (TSPO [1])	other results
7	9	CCN(CC)C(=O)c1nc2ccccc2c(-c2ccccc2)c1CF [AB5186]	significant difference	–	–
1	1	CC[C@@H](C)N(C)C(=O)c1nc2ccccc2c(-c2ccccc2)c1CF [LW223, (R)-(N-sec-Butyl)-3-fluoromethyl-N-methyl-4-phenylquinoline-2-carboxamide]	no significant difference	no significant difference	mean affinity relative to PK11195 (TSPO [3]): 2 times; Ki (TSPO [3]; read-out: mean affinity (Ki)): 0.6 nM
–	–	CCC(C)N(C)C(=O)c1cc2ccccc2c(-c2ccccc2Cl)n1 (centres unmarked) [PK11195]	no significant difference	no significant difference	concentration at 1 h ([4]; brain): 11 ± 1.99 ng/mL; concentration at 1 h ([4]; heart): 29.3 ± 3.93 ng/mL; concentration at 1 h ([4]; lungs): 38.9 ± 2.24 ng/mL
–	–	CC[C@@H](C)N([11CH3])C(=O)c1nc(-c2ccccc2Cl)c2ccccc2n1 [^11C-ER176]	–	–	LAB:HAB ratio in vitro (TSPO [5]): 1.3; LAB:HAB ratio in vivo (TSPO [6]): around 3
–	–	CCC(C)N(C)C(=O)c1cc2ccccc2c(-c2ccccc2Cl)n1 (centres unmarked) [^11C-PK11195]	–	–	plasma free fraction [7]: 1-6%

Structure (SMILES)	LAB:HAB ratio (TSPO [1])	LAB:HAB affinity ratio (TSPO [2])	difference between HAB and LAB in individually calculated affinity values (TSPO [2])	difference between HAB and LAB in individually calculated affinity values (TSPO [1])	other results
COc1ccccc1CN(C(C)=O)c1cnccc1Oc1ccccc1 [PBR28]	48	49	significant difference	–	–
